Reference: patent US8263601B2, “Deuterium substituted xanthine derivatives” (CoNCERT Pharmaceuticals, Inc., priority 2009, dated 2012)
Like-named read-outs stand apart in the source and are kept apart here.

What was measured:
[1] = Pharmacokinetic study of 435(S) and other representative compounds in chimps after oral dosing (Example 40); type: in vivo; settings: species named in label measured in plasma
Protocol: 435(S) and representative compounds 121(S), 137(S), 421(S) and 437(S) were separately dissolved in warm (65° C.) water at a concentration [[of 10 mg/mL]]. The same protocol described for Example 39 was then followed for each representative compound.

[2] = Pharmacokinetic study of pentoxifylline and Compound 435(S) in chimps after oral dosing (Example 39); type: in vivo; settings: oral gavage 65 mg each of pentoxifylline and 435(S) in water, species named in label measured in plasma
Protocol: Pentoxifylline and Compound 435(S) were tested according to a protocol similar to the Oral Dosing protocol followed in Example 38, except that (a) the compounds were separately dissolved in water rather than saline; (b) the mixture of the two compounds was not sterile filtered; and (c) oral administration was achieved by oral gavage of a single 65 mg dose of each compound (13 mL total dosing solution).

[3] = Pharmacokinetic study of pentoxifylline and Compound 435(S) in chimps after oral dosing (Example 38); type: in vivo; settings: in vivo, po, 75 mg
Protocol: Pentoxifylline and Compound 435(S) were separately dissolved in warm (65° C.) saline at a concentration at 10 mg/mL. A 1:1 mixture of the two compounds was then prepared containing a final concentration of 5 mg/mL of each compound and the mixture was then sterile filtered through a 0.2-μm filter.
Two chimps (one male and one female) were used in each of the oral and intravenous studies. Animals were fasted overnight prior to administration of compounds. All animals were sedated with ketamine (approximately 10 mg/kg) and/or telazol (approximately 5 mg/kg) prior to dosing. Intravenous administration was achieved by IV infusion of 75 mg of each compound (15 mL total dosing solution) over 10 minutes. Oral administration was achieved by oral gavage of a single 75 mg dose of each compound (15 mL total dosing solution). Blood samples (6 mL) were collected from the dosed chimps at various times prior to and after dosing. For intravenous administrations blood samples were collected at 0 min (preinfusion), 5 min, 9.5 min (immediately before the end of the infusion), then 6, 15, 30 and 45 min, and 1, 2, 4, 6, 8, 10 and 12 hr after the infusion is stopped. For oral administrations, blood samples were collected at 0 min (predose), 15 and 30 min, and 1, 1.5, 2, 4, 6, 8, 10 and 12 hr postdose.
Blood samples were placed in tubes containing sodium heparin, mixed and stored on ice until centrifuged. Within 30 minutes of collection, plasma was isolated by centrifuging the blood samples and removing an aliquot (200 μL) of the resulting plasma. Each 200-μL aliquot of plasma was mixed with 400 μL acetonitrile and stored at −70° C. until further analysis by LC-MS/MS using an Applied Bio-systems API 4000 mass spectrometer.
The analysis of all samples by LC-MS/MS was performed as described above for the rat plasma samples in Example 37.

[4] = Pharmacokinetic study in rats of (S)-M1 and Compound 435(S) after oral dosing (Example 37); type: in vivo, male Sprague-Dawley rats; settings: oral gavage single 5 mg/kg dose, 1:1 mixture of (S)-M1 and 435(S), species named in label measured in plasma, −1D and −2D species included
Protocol: (§1) (S)-M1 and Compound 435(S) (a deuterated form of (S)-M1) were separately dissolved in saline at a concentration of 10 mg/mL. A 1:1 mixture of the two compounds was then prepared containing a final concentration of 5 mg/mL of each compound, which was used for intravenous administration. For oral administration the mixture was further diluted in saline to a final concentration of 1 mg/mL for each compound.
(§2) Three male Sprague-Dawley rats were used in each of the oral and intravenous studies. Animals were fasted overnight prior to administration of compounds. Intravenous administration was achieved by bolus injection of a single 5 mg/kg dose of the 1:1 combination into the cannulated jugular vein of the rats. Cannulation was achieved the day prior to dosing on rats that had been placed under anesthesia using ketamine (IM 30 mg/kg). Oral administration was achieved by oral gavage of a single 5 mg/kg dose. Blood samples (250 μL) were collected from the dosed rats at various times post-dosing (2 min, 5 min, 10 min, 20 min, 30 min, 1 hr, 2 hr, 3 hr, 4 hr, 5 hr, 6 hr) by retro-orbital sampling of the rats temporarily anesthetized with isoflurane. Blood samples were placed in tubes containing K2-EDTA and stored on ice until centrifuged. Within 30 minutes of collection, plasma was isolated by centrifugation. A 100-μL aliquot was removed, mixed with 200 μL of acetonitrile and stored at −20° C. until further analysis by LC-MS/MS using an Applied Bio-systems API 4000 mass spectrometer.
(§3) Samples were analyzed for the presence of the administered compound, the corresponding ketone (pentoxifylline and Compound 409) and the corresponding M5 metabolite. Samples (10 μL) were injected into a Zorbax SB-C8 (Rapid Resolution) column (2.1×30 mm, 3.5 μm). The initial mobile phase condition was 100% A (10 mM ammonium acetate in water) and 0% B (methanol) with a flow rate at 0.5 mL/min. Mobile phase B was allowed to reach 55% in 3 minutes and from 55% to 90% in 1 minute before ramping back to 0% in another minute. The overall run time was 5 minutes. For pentoxifylline and its M1 and M5 metabolites, the precursor/product ion pairs were set at m/z 281/193 (M1), m/z 279/181 (pentoxifylline), and m/z 267/221 (M5).
(§4) For Compound 435(S) and Compound 409 more than one ion pair was set up for to detect species that arose from loss of deuterium. […] This loss of deuterium appears to occur both in vivo and ex vivo by an unknown mechanism. The addition of acetonitrile to serum samples was used to stop any additional ex vivo deuterium loss prior to analysis. Typically, no more than 2 deuterium atoms were replaced by hydrogen. For Compound 435(S), there is a deuterium at the methinyl position which was lost upon oxidation to the keto-compound 409. Reduction of 409 to an M1 metabolite introduced a proton at the methinyl position. When serum from animals dosed with 435(S) were analyzed to quantitate administered compound and metabolites, compound species were included with one and two less side chain deuteriums in the total amounts (referred to hereinafter as the “−1D” and the “−2D” species). Thus, for Compound 435(S) and Compound 409 separate ion pairs were set up to detect the compound and its corresponding −1D and −2D species. For Compound 435(S) three ion pairs were detected: m/z 291/197, 290/197, and […]. For Compound 409 ion pairs of m/z 288/186, 287/186 and 286/186 were monitored. Inclusion of −1D and −2D species in the measurements of Compound 409 and Compound 435(S) more accurately quantitates the total active species and is reasonable based on what is known about the metabolism and activities of pentoxifylline and its M-1 metabolites. Increased plasma exposure to Compound 409 or any M-1 metabolites of 409 would be desirable. This includes the −1D and −2D species.
(§5) [drawing 78] which has no deuterium on its acid side chain, only one ion pair was used at m/z 271/225. The internal standard for the analysis was indiplon.

[5] = Pharmacokinetic study in rats of (S)-M1 and Compound 435(S) after intravenous dosing (Example 37); type: in vivo, male Sprague-Dawley rats; settings: intravenous bolus single 5 mg/kg dose of 1:1 combination of (S)-M1 and 435(S), species named in label measured in plasma
Protocol: as §1, §2, §3, §4, §5

[6] = in vivo; parameters: species or system male beagle dogs; settings: dog, po, 2.5 mg/kg
Protocol: Metabolism of the title compounds were studied following oral administration to male beagle dogs. Blood samples were removed from dosed dogs at various time points and plasma isolated therefrom. The plasma samples were used for the determination of plasma drug levels by LC-MS/MS (liquid chromatography with tandem mass spectrometry) for estimating pharmacokinetic parameters.
Compound 409 and pentoxifylline were dissolved separately in saline to a concentration of 4 mg/mL. A 1:1 (v/v) mixture of the two solutions was prepared to yield a solution having a final concentration of 2 mg/mL of both Compound 409 and pentoxifylline.
Two male beagle dogs were fasted overnight and then orally dosed via gavage with 2.5 mg/kg of Compound 409 and pentoxifylline using the mixture described above. Blood samples (1.5-2 mL) were collected via the femoral vein at 0 min (pre-dose), 15 min, 30 min, 45 min, 1 hr, 1.5 hr, 2 hr, 3 hr, 4 hr, 6 hr, 8 hr, 10 hr, 12 hr, 16 hr and 24 hr post-dose. Blood was stored on ice prior to centrifugation to obtain plasma samples. Centrifugation took place within 1 hour of blood collection to harvest plasma (maximum volume). The plasma was decanted immediately and frozen/stored at −70° C. until analysis.

[7] = female, plasma, po, 65 mg, Table 17 iii): female chimp, 435(S) and 421(S), read-out: AUC0-12 Female
[8] = male, plasma, po, 65 mg, Table 17 iii): male chimp, 435(S) and 421(S), read-out: AUC0-12 Male
[9] = female, plasma, po, 65 mg, Table 17 iv): female chimp, 435(S) and 437(S), read-out: AUC0-12 Female

[2H]C([2H])([2H])[C@H](O)C([2H])([2H])CCCn1c(=O)c2c(ncn2C)n(C)c1=O [Compound 121(S), S-1-(4,4,6,6,6-d5-5-Hydroxyhexyl)-3,7-dimethyl-1H-purine-2,6(3H,7H)-dione]
AUC(0-t) ([1]; female, plasma, po, 65 mg, Table 17 i): female chimp, 435(S) and 121(S), read-out: AUC0-12 Female): 105 ng·h/mL
AUC(0-t) ([1]; male, plasma, po, 65 mg, Table 17 i): male chimp, 435(S) and 121(S), read-out: AUC0-12 Male): 304 ng·h/mL

[2H]C([2H])([2H])[C@]([2H])(O)C([2H])([2H])CCCn1c(=O)c2c(ncn2C)n(C)c1=O [Compound 137(S), (S)-1-(4,4,5,6,6,6-d6-5-Hydroxyhexyl)-3,7-dimethyl-1H-purine-2,6(3H,7H)-dione]
AUC(0-t) ([1]; female, plasma, po, 65 mg, Table 17 ii): female chimp, 435(S) and 137(S), read-out: AUC0-12 Female): 163 ng·h/mL
AUC(0-t) ([1]; male, plasma, po, 65 mg, Table 17 ii): male chimp, 435(S) and 137(S), read-out: AUC0-12 Male): 63 ng·h/mL

[2H]c1nc2c(c(=O)n(CCCC([2H])([2H])[C@@H](O)C([2H])([2H])[2H])c(=O)n2C)n1C [Compound 421(S), (S)-1-(4,4,6,6,6-d5-5-hydroxyhexyl)-3,7-dimethyl-8-d-1H-purine-2,6(3H,7H)-dione]
AUC(0-t) [1, 7]: 634 ng·h/mL
AUC(0-t) [1, 8]: 743 ng·h/mL

[2H]c1nc2c(c(=O)n(CCCC([2H])([2H])[C@@]([2H])(O)C([2H])([2H])[2H])c(=O)n2C)n1C [Compound 437(S), (S)-8-d1-1-(4,4,5,6,6,6-d6-5-Hydroxyhexyl)-3,7-dimethyl-1H-purine-2,6(3H,7H)-dione]
AUC(0-t) [1, 9]: 1180 ng·h/mL
AUC(0-t) ([1]; male, plasma, po, 65 mg, Table 17 iv): male chimp, 435(S) and 437(S), read-out: AUC0-12 Male): 757 ng·h/mL

Cn1cnc2c1c(=O)n(CCCC(=O)O)c(=O)n2C [Compound M5, reference compound]
AUC0-12 Female ([2]; female chimp): 811 ng·h/mL
AUC0-12 Male ([2]; male chimp): 817 ng·h/mL
AUC0-12 Female ([1]; Table 17 i): female chimp, 435(S) and 121(S)): 653 ng·h/mL
AUC0-12 Male ([1]; Table 17 i): male chimp, 435(S) and 121(S)): 630 ng·h/mL
AUC0-12 Female ([1]; Table 17 ii): female chimp, 435(S) and 137(S)): 635 ng·h/mL
AUC0-12 Male ([1]; Table 17 ii): male chimp, 435(S) and 137(S)): 539 ng·h/mL
AUC0-∞ Female [3]: 1868 ng·h/mL
AUC0-∞ Male [3]: 1456 ng·h/mL
AUC0-∞ [4]: 2985 ± 601 ng·h/mL
AUC0-∞ [5]: 1795 ± 521 ng·h/mL

[2H]c1nc2c(c(=O)n(CCCC(=O)O)c(=O)n2C)n1C [Deuterated M5 (M5b)]
AUC(0-t) [1, 7]: 350 ng·h/mL
AUC(0-t) [1, 9]: 416 ng·h/mL
AUC(0-t) [1, 8]: 447 ng·h/mL

pentoxifylline [reference compound]
Ave. AUC [6]: 448 ng·h/mL
Ave. Cmax [6]: 784 ng/mL
